Results reported in ChEMBL document CHEMBL3885881, “DrugMatrix”.

Organism: Rattus norvegicus
Test: DrugMatrix - Regimen: Daily Repeat
Assay type: toxicity, organism-based, Sprague-Dawley
Set-up: regimen Daily Repeat, gender Male, age 6-8 weeks
Settings: in vivo, po, route oral GAVAGE, vehicle 100 % WATER; for ABSOLUTE BASOPHIL / ABSOLUTE EOSINOPHIL / ABSOLUTE LYMPHOCYTE / ABSOLUTE MONOCYTE / ABSOLUTE SEGMENTED NEUTROPHIL / BASOPHIL / EOSINOPHIL / ERYTHROCYTE COUNT / HEMATOCRIT / HEMOGLOBIN / LEUKOCYTE COUNT / LYMPHOCYTE / MEAN CORPUSCULAR HEMOGLOBIN / MEAN CORPUSCULAR HEMOGLOBIN CONCENTRATION / MEAN CORPUSCULAR VOLUME / MONOCYTE / NEUTROPHIL / NUCLEATED RED BLOOD CELLS / PLATELET COUNT: tissue Blood; for ALANINE AMINOTRANSFERASE / ALBUMIN / ALKALINE PHOSPHATASE / ASPARTATE AMINOTRANSFERASE / BLOOD UREA NITROGEN / CARBON DIOXIDE / CHLORIDE / CHOLESTEROL / CREATINE PHOSPHOKINASE / CREATININE / GLUCOSE / LIPASE / PHOSPHORUS / POTASSIUM / SODIUM / TOTAL BILIRUBIN / TOTAL PROTEIN / URIC ACID: tissue Plasma
[1] = 0 mg/kg, 72 h, dose level Control, time 3 day
[2] = 0 mg/kg, 120 h, dose level Control, time 5 day
[3] = 10 mg/kg, 72 h, dose level Low, time 3 day
[4] = 10 mg/kg, 120 h, dose level Low, time 5 day

Fc1ccc([C@@H]2CCNC[C@H]2COc2ccc3c(c2)OCO3)cc1 [PAROXETINE]
ABSOLUTE BASOPHIL [1]: 0 CELLS/uL
ABSOLUTE EOSINOPHIL [1]: 32.5 CELLS/uL
ABSOLUTE LYMPHOCYTE [1]: 9305.83 CELLS/uL
ABSOLUTE MONOCYTE [1]: 43.83 CELLS/uL
ABSOLUTE SEGMENTED NEUTROPHIL [1]: 817.83 CELLS/uL
BASOPHIL [1]: 0%
EOSINOPHIL [1]: 0.33%
ERYTHROCYTE COUNT [1]: 5.38 x10E6/uL
HEMATOCRIT [1]: 33.63%
HEMOGLOBIN [1]: 13.17 G/DL
LEUKOCYTE COUNT [1]: 10.2 x10E3/uL
LYMPHOCYTE [1]: 91.17%
MEAN CORPUSCULAR HEMOGLOBIN [1]: 24.5 pg
MEAN CORPUSCULAR HEMOGLOBIN CONCENTRATION [1]: 39.13 G/DL
MEAN CORPUSCULAR VOLUME [1]: 62.53 fL
MONOCYTE [1]: 0.5%
NEUTROPHIL [1]: 8%
NUCLEATED RED BLOOD CELLS [1]: 0.17 /100WBC
PLATELET COUNT [1]: 858 x10E3/uL
ALANINE AMINOTRANSFERASE [1]: 55.67 u/L
ALBUMIN [1]: 4.07 G/DL
ALKALINE PHOSPHATASE [1]: 337 u/L
ASPARTATE AMINOTRANSFERASE [1]: 84 u/L
BLOOD UREA NITROGEN [1]: 13.17 mg/dL
CARBON DIOXIDE [1]: 34.17 mmol/L
CHLORIDE [1]: 99.33 MEQ/L
CHOLESTEROL [1]: 78.83 mg/dL
CREATINE PHOSPHOKINASE [1]: 576.83 u/L
CREATININE [1]: 0.17 mg/dL
GLUCOSE [1]: 152.67 mg/dL
LIPASE [1]: 9.5 u/L
PHOSPHORUS [1]: 10.78 mg/dL
POTASSIUM [1]: 6.34 MEQ/L
SODIUM [1]: 144.12 MEQ/L
TOTAL BILIRUBIN [1]: 0.18 mg/dL
TOTAL PROTEIN [1]: 6.08 G/DL
URIC ACID [1]: 0.65 mg/dL
ABSOLUTE BASOPHIL [2]: 0 CELLS/uL
ABSOLUTE EOSINOPHIL [2]: 31.17 CELLS/uL
ABSOLUTE LYMPHOCYTE [2]: 7918.33 CELLS/uL
ABSOLUTE MONOCYTE [2]: 58.33 CELLS/uL
ABSOLUTE SEGMENTED NEUTROPHIL [2]: 725.5 CELLS/uL
BASOPHIL [2]: 0%
EOSINOPHIL [2]: 0.33%
ERYTHROCYTE COUNT [2]: 5.32 x10E6/uL
HEMATOCRIT [2]: 33.53%
HEMOGLOBIN [2]: 13.17 G/DL
LEUKOCYTE COUNT [2]: 8.73 x10E3/uL
LYMPHOCYTE [2]: 90.33%
MEAN CORPUSCULAR HEMOGLOBIN [2]: 24.82 pg
MEAN CORPUSCULAR HEMOGLOBIN CONCENTRATION [2]: 39.33 G/DL
MEAN CORPUSCULAR VOLUME [2]: 63.12 fL
MONOCYTE [2]: 0.67%
NEUTROPHIL [2]: 8.67%
NUCLEATED RED BLOOD CELLS [2]: 0 /100WBC
PLATELET COUNT [2]: 1144.83 x10E3/uL
ALANINE AMINOTRANSFERASE [2]: 60.5 u/L
ALBUMIN [2]: 3.97 G/DL
ALKALINE PHOSPHATASE [2]: 343.17 u/L
ASPARTATE AMINOTRANSFERASE [2]: 80.83 u/L
BLOOD UREA NITROGEN [2]: 15 mg/dL
CARBON DIOXIDE [2]: 31 mmol/L
CHLORIDE [2]: 99.75 MEQ/L
CHOLESTEROL [2]: 71.5 mg/dL
CREATINE PHOSPHOKINASE [2]: 237.17 u/L
CREATININE [2]: 0.17 mg/dL
GLUCOSE [2]: 137 mg/dL
LIPASE [2]: 11.5 u/L
PHOSPHORUS [2]: 10.13 mg/dL
POTASSIUM [2]: 6 MEQ/L
SODIUM [2]: 145 MEQ/L
TOTAL BILIRUBIN [2]: 0.13 mg/dL
TOTAL PROTEIN [2]: 5.82 G/DL
URIC ACID [2]: 0.62 mg/dL
ABSOLUTE BASOPHIL [3]: 0 CELLS/uL
ABSOLUTE EOSINOPHIL [3]: 33 CELLS/uL
ABSOLUTE LYMPHOCYTE [3]: 7114.67 CELLS/uL
ABSOLUTE MONOCYTE [3]: 0 CELLS/uL
ABSOLUTE SEGMENTED NEUTROPHIL [3]: 519 CELLS/uL
BASOPHIL [3]: 0%
EOSINOPHIL [3]: 0.33%
ERYTHROCYTE COUNT [3]: 5.11 x10E6/uL
HEMATOCRIT [3]: 31.5%
HEMOGLOBIN [3]: 12.33 G/DL
LEUKOCYTE COUNT [3]: 7.67 x10E3/uL
LYMPHOCYTE [3]: 92.67%
MEAN CORPUSCULAR HEMOGLOBIN [3]: 24.2 pg
MEAN CORPUSCULAR HEMOGLOBIN CONCENTRATION [3]: 39.2 G/DL
MEAN CORPUSCULAR VOLUME [3]: 61.7 fL
MONOCYTE [3]: 0%
NEUTROPHIL [3]: 7%
NUCLEATED RED BLOOD CELLS [3]: 0.33 /100WBC
PLATELET COUNT [3]: 979 x10E3/uL
ALANINE AMINOTRANSFERASE [3]: 52.67 u/L
ALBUMIN [3]: 4 G/DL
ALKALINE PHOSPHATASE [3]: 368 u/L
ASPARTATE AMINOTRANSFERASE [3]: 88.67 u/L
BLOOD UREA NITROGEN [3]: 16 mg/dL
CARBON DIOXIDE [3]: 35.33 mmol/L
CHLORIDE [3]: 100.33 MEQ/L
CHOLESTEROL [3]: 67.33 mg/dL
CREATINE PHOSPHOKINASE [3]: 233 u/L
CREATININE [3]: 0.14 mg/dL
GLUCOSE [3]: 119.33 mg/dL
LIPASE [3]: 9.33 u/L
PHOSPHORUS [3]: 10.97 mg/dL
POTASSIUM [3]: 6.17 MEQ/L
SODIUM [3]: 145.03 MEQ/L
TOTAL BILIRUBIN [3]: 0.2 mg/dL
TOTAL PROTEIN [3]: 5.83 G/DL
URIC ACID [3]: 0.77 mg/dL
ABSOLUTE BASOPHIL [4]: 0 CELLS/uL
ABSOLUTE EOSINOPHIL [4]: 0 CELLS/uL
ABSOLUTE LYMPHOCYTE [4]: 6074.67 CELLS/uL
ABSOLUTE MONOCYTE [4]: 188.33 CELLS/uL
ABSOLUTE SEGMENTED NEUTROPHIL [4]: 703.67 CELLS/uL
BASOPHIL [4]: 0%
EOSINOPHIL [4]: 0%
ERYTHROCYTE COUNT [4]: 5.7 x10E6/uL
HEMATOCRIT [4]: 34.77%
HEMOGLOBIN [4]: 13.23 G/DL
LEUKOCYTE COUNT [4]: 6.97 x10E3/uL
LYMPHOCYTE [4]: 86.67%
MEAN CORPUSCULAR HEMOGLOBIN [4]: 23.2 pg
MEAN CORPUSCULAR HEMOGLOBIN CONCENTRATION [4]: 38.07 G/DL
MEAN CORPUSCULAR VOLUME [4]: 61 fL
MONOCYTE [4]: 2.33%
NEUTROPHIL [4]: 11%
NUCLEATED RED BLOOD CELLS [4]: 0 /100WBC
PLATELET COUNT [4]: 1176.67 x10E3/uL
ALANINE AMINOTRANSFERASE [4]: 56.33 u/L
ALBUMIN [4]: 4.17 G/DL
ALKALINE PHOSPHATASE [4]: 432.67 u/L
ASPARTATE AMINOTRANSFERASE [4]: 87.67 u/L
BLOOD UREA NITROGEN [4]: 17 mg/dL
CARBON DIOXIDE [4]: 31.67 mmol/L
CHLORIDE [4]: 99.67 MEQ/L
CHOLESTEROL [4]: 81 mg/dL
CREATINE PHOSPHOKINASE [4]: 254 u/L
CREATININE [4]: 0.19 mg/dL
GLUCOSE [4]: 152.67 mg/dL
LIPASE [4]: 9.67 u/L
PHOSPHORUS [4]: 10.57 mg/dL
POTASSIUM [4]: 6.09 MEQ/L
SODIUM [4]: 145.13 MEQ/L
TOTAL BILIRUBIN [4]: 0.2 mg/dL
TOTAL PROTEIN [4]: 6.03 G/DL
URIC ACID [4]: 0.77 mg/dL
